In US7005539B2, “Ferulic acid dimers and their pharmaceutically acceptable salts, their preparation and use thereof for treating dementia” (Korea Institute of Science and Technology, priority 2001, dated 2006):

Legend:
Sprague-Dawley rats = test: single-dose oral toxicity test in rats; type: in vivo, rat; details: for LD50: oral, one time, in corn oil, observed 7 days
Procedure: Twenty female and twenty male Sprague-Dawley rats aged 4 weeks were divided into four groups including 5 female and 5 male rats, after being raised in a vivarium of temperature 22±3° C., relative humidity 50±10%, illumination 150–300 Lux for 1 week.
The ferulic acid dimers prepared in Example 1 was dissolved in corn oil, and the rats of 4 groups were orally administered with the solutions at a dose of 300, 1,000, 3,000 and 10,000 mg/kg one time. For 7 days after administration, changes of general symptoms and occurrence of death were observed. In addition, the rats were killed on day 7 after administration, dissected, and internal organs were examined with unaided eye. From the extract administration day, daily weight changes were measured and thus the weight decrease of animals attributed to ferulic acid dimers was observed.

[1] = test system: mice administered with beta-amyloid; test: passive avoidance test in mice given beta-amyloid into the cerebral ventricle; type: in vivo, mouse; details: group C (dimer and beta-amyloid) compared with group B (beta-amyloid (1–42) only); 24 h after training; maximum 300 seconds; FIG. 1
Procedure: Four groups of 10 mice aged 4–5 weeks, weighing 20–25 g, were administered with samples dissolved in 1% DMSO and 1% CMC using Sonde once per 1 day(samples: A-reverse phase betaamyloid, B-betaamyloid, C-ferulic acid dimer of example 1 and betaamyloid, D-ferulic acid and betaamyloid). After injection of […] sample to the celebral ventricle on each of 3 consecutive days, passive avoidance test on days 1 and 2, and Y-maze test on days 3 and 4 following the last injection were conducted. All data attained by the average mean of 10 mice each group.
Injection into the cerebral ventricle was performed according to the method described in Laursen & Belknap, J. Pharmacol. Methods. 1986, 16, 355. […]
In order to examine the learning and memory-retention ability of a mouse, a passive avoidance test was carried out in accordance with the method described in Song et al., J. Neurochem., 1998, 71, 875. […] Twenty-four hours after the training, the mouse was put in the light room again and the time it took to enter the dark room was measured as a passive avoidance time. The maximum restriction time was set at 300 seconds, i. e., in cases where the mouse took more than 300 seconds to enter the dark room, the passive avoidance time was determined to be 300 seconds.

cynuclein = test: T7 phage display selection of human brain cDNA library proteins on immobilized ferulic acid (chemical genomics); type: binding; details: screening repeated 3–4 times; identified by sequencing and BLAST
Text: (§1) In order to study a functional mechanism of ferulic acid dimers, the present inventors conducted an experiment to screen from protein libraries proteins conjugatable with ferulic acid by use the method of chemical genomics. To this end, ferulic acid was immobilized onto a solid substrate and treated with T7 phages having proteins translated from a human brain and cDNA library on their surface to select the proteins bound to the immobilized ferulic acid. For selection of the proteins with the best affinity for ferulic acid, the screening procedure was repeated 3–4 times. Base sequencing of the cDNA selected allowed the amino acid sequences of the corresponding proteins to be inferred. […] Of the proteins thus identified, cynuclein and plasophylin attracted particular attention. These two proteins, known to be directly or indirectly associated with formation of intercelluar or intracelluar plaque, were therefore found to be inhibited from forming plaques by ferulic acid.

plasophylin = test: as above; type: binding; details: screening repeated 3–4 times; identified by sequencing and BLAST
Text: as §1

mouse = details: separated ferulic acid monomer administered to mouse; cited from earlier work

SMILES | LD50 (Sprague-Dawley rats; females) | body weight (Sprague-Dawley rats; groups administered with 1,000 mg/kg or less) | LD50 (Sprague-Dawley rats; males) | pathological changes seen with naked eye on dissection (Sprague-Dawley rats; surviving animals, groups administered 1,000 mg/kg or less, day 7) | step-through latency [1] | protein selected as bound to immobilized ferulic acid (cynuclein) | protein selected as bound to immobilized ferulic acid (plasophylin) | memory-retention ability of mouse (mouse)
O=C(O)C=Cc1ccc(O)c(OCCOc2cc(C=CC(=O)O)ccc2O)c1 [Example 1, 1,2-[2-hydroxy-5-(2-carboxyvinyl)]phenoxyethane] | 2,804 mg/kg | not decreased | 3,722 mg/kg | No pathological changes | significantly higher | – | – | –
COc1cc(/C=C/C(=O)O)ccc1O [ferulic acid, 4-hydroxy-3-methoxy cinnamic acid] | – | – | – | – | – | specifically bound | specifically bound | considerably increased
